The text below walks through data of publication PMC7053488 (Cell, 2019).

Experiment [1] has as its target T1, rat P2X7 receptor (rP2X7) (Rattus norvegicus, UniProt Q64663).
T1 sequence (Q64663 1-595): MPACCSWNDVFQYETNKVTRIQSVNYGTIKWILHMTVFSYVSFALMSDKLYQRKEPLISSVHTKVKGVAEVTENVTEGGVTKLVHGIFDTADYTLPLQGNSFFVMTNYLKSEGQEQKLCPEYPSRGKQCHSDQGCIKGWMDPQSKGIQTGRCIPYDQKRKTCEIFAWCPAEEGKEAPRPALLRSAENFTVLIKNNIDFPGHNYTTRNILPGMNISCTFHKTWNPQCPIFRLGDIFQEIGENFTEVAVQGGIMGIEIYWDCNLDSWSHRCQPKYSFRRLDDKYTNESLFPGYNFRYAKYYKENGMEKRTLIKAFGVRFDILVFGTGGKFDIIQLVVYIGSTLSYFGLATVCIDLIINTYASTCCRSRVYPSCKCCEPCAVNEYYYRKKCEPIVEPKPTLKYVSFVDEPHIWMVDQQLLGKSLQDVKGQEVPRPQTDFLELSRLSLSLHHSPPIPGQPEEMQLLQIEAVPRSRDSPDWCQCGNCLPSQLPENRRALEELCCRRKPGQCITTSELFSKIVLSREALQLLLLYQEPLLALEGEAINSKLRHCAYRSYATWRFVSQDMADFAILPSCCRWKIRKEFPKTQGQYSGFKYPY
In words: cryo-EM structure. It counts as cell-based.

For experiment [2], the target named is rat P2X7 receptor, rP2X7-ΔBallast (Rattus norvegicus, UniProt Q64663).
The target of experiment [3] is T1, rat P2X7 receptor (rP2X7). Put plainly: SPA competition with 3H-GDP. The class given is binding.
Experiment [4] addresses T1, rat P2X7 receptor (rP2X7). In words: cryo-EM structure. The class given is binding.

Usually EC50 stands for the concentration at which the effect is half-maximal. A higher EC50 goes with lower potency in that assay. In the case of `Nc1ncnc2c1ncn2[C@@H]1O[C@H](COP(=O)(O)OP(=O)(O)OP(=O)(O)O)[C@@H](O)[C@H]1O` [ATP], the EC50 in experiment [1] stood at 42 ± 3 µM; in experiment [2], 52 ± 11 µM.
As a reminder, the Ki is the dissociation constant of the complex between target and ligand, obtained from inhibition or displacement. A low value points to higher affinity. Consider `Nc1ccn([C@@H]2O[C@H](COP(=O)(O)OP(=O)(O)OP(=O)(O)O)[C@@H](O)[C@H]2O)c(=O)n1` [CTP], for which the affinity in experiment [3], expressed as Ki, was 130 ± 3 µM.
By Kd is commonly meant a measure of binding affinity in units of concentration. Higher therefore signals weaker binding. As for `Nc1nc2c(ncn2[C@@H]2O[C@H](COP(=O)(O)OP(=O)(O)O)[C@@H](O)[C@H]2O)c(=O)[nH]1` [GDP], the Kd in experiment [4] stood at 40 ± 10 nM.
Molecule `Nc1nc2c(ncn2[C@@H]2O[C@H](COP(=O)(O)OP(=O)(O)OP(O)(O)=S)[C@@H](O)[C@H]2O)c(=O)[nH]1` [GTP-γ-S] gave a Ki in experiment [3] of 0.1 ± 0.01 µM.
The same measure, in the same setting: to `Nc1nc2c(ncn2[C@@H]2O[C@H](COP(=O)(O)OP(=O)(O)OP(=O)(O)O)[C@@H](O)[C@H]2O)c(=O)[nH]1` [GTP] belongs 0.15 ± 0.015 µM.
The same measure, in the same setting: to `O=c1ccn([C@@H]2O[C@H](COP(=O)(O)OP(=O)(O)OP(=O)(O)O)[C@@H](O)[C@H]2O)c(=O)[nH]1` [UTP] belongs 60 ± 10 µM.
